Results taken from patent publication US6642392B1 (priority 1997, dated 2003).
Like-named read-outs stand apart in the source and are kept apart here.

Experiments:
Assay type in all cases: in vivo
[1] = tested on: Eiysiphe graminis f. sp. tritici; test: Test A: wheat powdery mildew, preventive spray on wheat seedlings; settings: for Test A disease control rating (100 = 100% disease control, 0 = no disease control): wheat seedlings sprayed to run-off, inoculated the following day, rating relative to controls, unmarked compounds (standard test rate); for Test A disease control rating: wheat powdery mildew
Description: (§1) The resulting test suspensions were then used in the following tests. […]
The test suspension was sprayed to the point of run-off on wheat seedlings. The following day the seedlings were inoculated with a spore dust of Eiysiphe graminis f. sp. tritici, (the causal agent of wheat powdery mildew) and incubated in a growth chamber at 20° C. for 7 days, after which disease ratings were made.
(§2) Results for Tests A-E are given in Table A. In the table, a rating of 100 indicates 100% disease control and a rating of 0 indicates no disease control (relative to the controls). A dash (-) indicates no test results. ND indicates disease control not determined due to phytotoxicity.

[2] = tested on: Phytophthora infestans; settings: for Test D disease control rating (100 = 100% disease control, 0 = no disease control): tomato seedlings sprayed to run-off, inoculated the following day, rating relative to controls, unmarked compounds (standard test rate); for Test D disease control rating: tomato late blight
[3] = tested on: Pyricularia oryzae; settings: for Test C disease control rating (100 = 100% disease control, 0 = no disease control): rice seedlings sprayed to run-off, inoculated the following day, rating relative to controls, unmarked compounds (standard test rate); for Test C disease control rating: rice blast
[4] = tested on: Botrytis cinerea; test: Test E: gray mold, preventive spray on cucumber seedlings; settings: for Test E disease control rating (100 = 100% disease control, 0 = no disease control): cucumber seedlings sprayed to run-off, inoculated the following day, rating relative to controls, unmarked compounds (standard test rate); for Test E disease control rating: gray mold on cucumber
Description: The resulting test suspensions were then used in the following tests. Spraying these 200 ppm test suspensions to the point of run-off on the test plants is the equivalent of a rate of 500 g/ha.
The test suspension was sprayed to the point of run-off on cucumber seedlings. The following day the seedlings were inoculated with a spore suspension of Botrytis cinerea (the causal agent of gray mold on many crops) and incubated in a saturated atmosphere at 20° C. for 48 h, and moved to a growth chamber at 20° C. for 5 days, after which disease ratings were made.
as §2

[5] = tested on: Puccinia recondita; test: Test B: wheat leaf rust, preventive spray on wheat seedlings; settings: for Test B disease control rating (100 = 100% disease control, 0 = no disease control): wheat seedlings sprayed to run-off, inoculated the following day, rating relative to controls, unmarked compounds (standard test rate); for Test B disease control rating: wheat leaf rust
Description: as §1
The test suspension was sprayed to the point of run-off on wheat seedlings. The following day the seedlings were inoculated with a spore suspension of Puccinia recondita (the causal agent of wheat leaf rust) and incubated in a saturated atmosphere at 20° C. for 24 h, and then moved to a growth chamber at 20° C. for 6 days, after which disease ratings were made.
as §2

[6] = 100 = 100% disease control, 0 = no control relative to controls, unmarked entries (standard test concentration)
[7] = 100 = 100% disease control, 0 = no control, unmarked entries (standard test concentration)

| Structure (SMILES) | Test A disease control rating (100 = 100% disease control, 0 = no disease control) [1] | Test D disease control rating (100 = 100% disease control, 0 = no disease control) [2] | Test C disease control rating (100 = 100% disease control, 0 = no disease control) [3] | Test E disease control rating (100 = 100% disease control, 0 = no disease control) [4] | Test B disease control rating (100 = 100% disease control, 0 = no disease control) [5] | Test A disease control rating [1, 6] | Test D disease control rating [2, 7] | Test C disease control rating [3, 7] | Test E disease control rating [4, 7] | Test B disease control rating [5, 7] | also measured |
| --- | --- | --- | --- | --- | --- | --- | --- | --- | --- | --- | --- |
| CC(C)(C)C(C#N)C(=O)NC/C=C/c1cccc(Br)c1 (racemic) [compound 272] | 76% | 63% | 53% | 0% | 0% | – | – | – | – | – | – |
| CC(COc1ccc(F)cc1)NC(=O)C(C#N)C(C)(C)C (single isomer, unassigned) [4b] | – | – | – | – | – | 86% | 89% | 99% | 82% | 0% | – |
| CC(C)(C)C(C#N)C(=O)NCCCc1ccccc1 (racemic) [compound 54] | – | – | – | – | – | 34% | 0% | 32% | 16% | 11% | – |
| CCC1(C(=O)NC(C)COc2c(F)cccc2C#N)C(C)C1(Cl)Cl (mixture of isomers) [compound 316] | 0% | 0% | 53% | 0% | 0% | – | – | – | – | – | – |
| CCC1(C(=O)NC(C)COc2cccc(Cl)c2Cl)C(C)C1(Cl)Cl (centres unmarked) [compound 111] | – | – | – | – | – | – | – | – | – | – | Test A disease control rating ([1]; tested at 40 ppm): 90%; Test D disease control rating ([2]; tested at 40 ppm): 90%; Test C disease control rating ([3]; tested at 40 ppm): 0%; Test E disease control rating ([4]; tested at 40 ppm): 0%; Test B disease control rating ([5]; tested at 40 ppm): 0% |
| CCC1(C(=O)NCC=C(C)c2cc(Cl)ccc2Cl)C(C)C1(Cl)Cl (centres unmarked) [compound 271] | 77% | 96% | 94% | 0% | 0% | – | – | – | – | – | – |
| CCC1(C(=O)NC(C)C=Cc2ccc(F)cc2)C(C)C1(Cl)Cl (mixture of isomers) [compound 261] | 0% | 54% | 100% | 0% | 0% | – | – | – | – | – | – |
| C[C@H](COc1ccc(Cl)cc1F)NC(=O)C(C#N)C(C)(C)C (single isomer, unassigned) [36b] | – | – | – | – | – | 62% | 80% | 100% | 0% | 27% | – |
| CCC1(C(=O)NC(C)COc2c(F)cc(F)cc2F)C(C)C1(Cl)Cl (centres unmarked) [compound 237] | 62% | 9% | 53% | 0% | 0% | – | – | – | – | – | – |
| CCC1(C(=O)NC(C)COc2cccc(F)c2)C(C)C1(Cl)Cl (mixture of isomers) [79b] | – | – | – | – | – | – | – | – | – | – | Test A disease control rating ([1]; tested at 40 ppm): 0%; Test D disease control rating ([2]; tested at 40 ppm): 0%; Test C disease control rating ([3]; tested at 40 ppm): 100%; Test E disease control rating ([4]; tested at 40 ppm): 0%; Test B disease control rating ([5]; tested at 40 ppm): 0% |
